From patent publication US20160023126A1, “SPRAY DRYING TECHNIQUES” (President and Fellows of Harvard College, priority 2010, published 2016)

Assays:
Format in all cases: physicochemical
[1] = SEM analysis of particle size and morphology of spray-dried drug; conditions: microfluidic spray dryer; danazol in IPA and pure IPA (antisolvent replaced by solvent)
Description: To evaluate the effect of microfluidic processing on particle size and morphology of the hydrophobic drug, no stabilizer or surfactant was added to influence the particle growth. […] Morphology and particle size of the processed drug was examined by scanning electron microscopy (“SEM”) analysis. […] The scale bar denotes 300 nm.
(§1) Processed danazol was collected at distances between 5 cm and 30 cm from the spray nozzle. For SEM analysis, the spray was collected on glass slides and coated with Pd/Pt. An Ultra55 Field Emission SEM (Zeiss) coupled with an EDX detector was used. The size distribution of the nanoparticles was determined by image analysis of SEM photographs using ImageJ. For XRPD analysis, samples were collected in an aluminum box over which the spray dryer was mounted. XPRD analysis was performed using a Scintag XDS2000 powder diffractometer (Scintag, Cupertino, California, USA) with Cu Ka (K-alpha) radiation at 40 kV and 30 mA. The XRD patterns were taken at room temperature in the range of 10°≦2θ≦50° (2 theta) with a scan rate of 1° min^−1 and a step size of 0.02°.

[2] = X-ray powder diffraction analysis (XRPD) of crystallinity
Source text: X-ray powder diffraction analysis (“XRPD”) was employed to determine the effect of spatial sampling on the crystallinity of danazol. Characteristic peaks at 20 (2 theta) of 15.8, 17.1 and 19.0 in the XRD pattern of unprocessed danazol were used as reference. In processed danazol, the intensity of the characteristic peaks decreased as the collection distance of the spray is increased. These figures show nanoparticles, approximately 20 nm to 60 nm in diameter, assembled in a dense network.
as §1

[3] = Energy dispersive X-ray (EDX) analysis of chemical composition after spray drying; conditions: unprocessed vs processed danazol, either solvent system (IPA/water, IPA/IPA)
Description: Scale bar denotes 300 nm.
as §1

Compound: C#C[C@]1(O)CC[C@H]2[C@@H]3CCC4=Cc5oncc5C[C@]4(C)[C@H]3CC[C@@]21C [danazol]
- size and morphology of nanoparticles compared with IPA/water system [1]: identical size and morphology
- crystallinity (XRPD) ([2]; conventional Mini Spray Dryer B 191, solution of danazol in IPA): retained
- crystallinity (intensity of characteristic XRPD peaks) ([2]; microfluidic spray dryer, collection distance of the spray increased (5 cm to 30 cm)): initial crystallinity of the drug was not recovered
- crystallinity (XRPD pattern) ([2]; microfluidic spray dryer, danazol in IPA with water, collected 5 cm from nozzle): crystalline aggregates
- chemical composition of the drug during the spray drying process [3]: remained unchanged
